Measured values as given in patent publication US20240190880A1 (THE REGENTS OF THE UNIVERSITY OF MICHIGAN, priority 2021, published 2024).

Each molecule was assayed against T1, ER (Homo sapiens, UniProt P03372) (assay: ER degradation activity, in-cell western blot analysis in T47D cells). Conditions: 16 hours, Table A does not say which cell line (T47D or MCF7), read-out: Potency (DC50).
T1 construct: host or cells: T47D and MCF7 human breast cancer cells
T1 sequence (P03372 1-595): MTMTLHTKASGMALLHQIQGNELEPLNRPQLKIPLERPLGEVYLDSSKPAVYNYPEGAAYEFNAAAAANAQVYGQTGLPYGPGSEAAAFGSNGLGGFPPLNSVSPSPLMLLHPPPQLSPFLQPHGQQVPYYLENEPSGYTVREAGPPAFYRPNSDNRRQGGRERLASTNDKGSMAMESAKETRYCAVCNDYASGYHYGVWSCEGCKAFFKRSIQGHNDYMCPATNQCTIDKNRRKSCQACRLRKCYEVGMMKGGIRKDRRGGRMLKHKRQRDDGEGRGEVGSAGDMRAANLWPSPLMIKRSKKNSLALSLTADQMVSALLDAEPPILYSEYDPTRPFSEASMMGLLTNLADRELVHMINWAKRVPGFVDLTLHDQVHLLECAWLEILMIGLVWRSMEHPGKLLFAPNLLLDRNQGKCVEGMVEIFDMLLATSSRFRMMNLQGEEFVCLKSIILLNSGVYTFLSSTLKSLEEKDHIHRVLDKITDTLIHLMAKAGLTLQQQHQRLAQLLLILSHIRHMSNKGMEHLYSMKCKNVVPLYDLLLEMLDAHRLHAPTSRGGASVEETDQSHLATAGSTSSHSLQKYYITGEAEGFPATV
Type: cell-based
Procedure, shortened: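 Read-out is near-infrared fluorescence from an in-cell western, expressed as ER percentage relative to untreated and DMSO controls taken as 100%. T47D breast cancer cells received compound for 16 h in 0.5% DMSO.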
Work on `C[C@@H]1Cc2c([nH]c3ccccc23)[C@@H](c2c(F)cc(N3CCC(N4CCC(CN5Cc6cc7c(cc6C5)C(=O)N(C5CCC(=O)NC5=O)C7)CC4)CC3)cc2F)N1CC(F)F` (stereo partly drawn) [E 86, 3-(6-((1′-(4-((1R,3R)-2-(2,2-difluoroethyl)-3-methyl-2,3,4,9-tetrahydro-1H-pyrido[3,4-b]indol-1-yl)-3,5-difluorophenyl)-[1,4′-bipiperidin]-4-yl)methyl)-1-oxo-3,5,6,7-tetrahydropyrrolo[3,4-f]isoindol-2(1H)-yl)piperidine-2,6-dione] yielded a DC50 of 10 to 100 nM. Molecule `CN(C1CCN(c2ccc([C@@H]3c4ccc(O)cc4CC[C@@H]3c3ccccc3)cc2)CC1)N1CCC(C(=O)N2Cc3cc4c(cc3C2)C(=O)N(C2CCC(=O)NC2=O)C4)CC1` (mixture of isomers) [E 288, 3-(6-(1-((1-(4-((1R,2S)-6-hydroxy-2-phenyl-1,2,3,4-tetrahydronaphthalen-1-yl)phenyl)piperidin-4-yl)(methyl)amino)piperidine-4-carbonyl)-1-oxo-3,5,6,7-tetrahydropyrrolo[3,4-f]isoindol-2(1H)-yl)piperidine-2,6-dione] has a DC50 of 10 to 100 nM. `C[C@@H]1Cc2c([nH]c3ccccc23)[C@@H](c2c(F)cc(N3CC(C(=O)N4CC(CN5Cc6cc7c(cc6C5)C(=O)N(C5CCC(=O)NC5=O)C7=O)C4)C3)cc2F)N1CC(F)F` (stereo partly drawn) [E 230, 6-((1-(1-(4-((1R,3R)-2-(2,2-difluoroethyl)-3-methyl-2,3,4,9-tetrahydro-1H-pyrido[3,4-b]indol-1-yl)-3,5-difluorophenyl)azetidine-3-carbonyl)azetidin-3-yl)methyl)-2-(2,6-dioxopiperidin-3-yl)-6,7-dihydropyrrolo[3,4-f]isoindole-1,3(2H,5H)-dione] was tested, and the DC50 was 10 to 100 nM. For `O=C1CCC(N2C(=O)c3cc4c(cc3C2=O)CN(c2ncc(CN3CC(Oc5ccc([C@@H]6c7ccc(O)cc7CC[C@@H]6c6ccccc6)cc5)C3)cn2)C4)C(=O)N1` (stereo partly drawn) [E327, 2-(2,6-dioxopiperidin-3-yl)-6-(5-((3-(4-((1R,2S)-6-hydroxy-2-phenyl-1,2,3,4-tetrahydronaphthalen-1-yl)phenoxy)azetidin-1-yl)methyl)pyrimidin-2-yl)-6,7-dihydropyrrolo[3,4-f]isoindole-1,3(2H,5H)-dione], the DC50 was > 100 nM.

Same assay, conditions: compounds 16 hours, Table A does not say whether T47D or MCF7, read-out: Potency (DC50)
With `O=C1CCC(N2Cc3cc4c(cc3C2=O)CN(C2CCN(CC3CCN(c5ccc([C@@H]6c7ccc(O)cc7CC[C@@H]6c6ccccc6)cc5)CC3)CC2)C4=O)C(=O)N1` (stereo partly drawn) [E 506, 2-(2,6-dioxopiperidin-3-yl)-6-(1-((1-(4-((1R,2S)-6-hydroxy-2-phenyl-1,2,3,4-tetrahydronaphthalen-1-yl)phenyl)piperidin-4-yl)methyl)piperidin-4-yl)-2,3,6,7-tetrahydropyrrolo[3,4-f]isoindole-1,5-dione] the DC50 was > 100 nM. With `O=C1CCC(N2C(=O)c3cc4c(cc3C2=O)CN(CC2CCC3(CC2)CN(C(=O)c2ccc([C@@H]5c6ccc(O)cc6CC[C@@H]5c5ccccc5)cc2)C3)C4)C(=O)N1` (stereo partly drawn) [E 493, 2-(2,6-dioxopiperidin-3-yl)-6-((2-(4-((1R,2S)-6-hydroxy-2-phenyl-1,2,3,4-tetrahydronaphthalen-1-yl)benzoyl)-2-azaspiro[3.5]nonan-7-yl)methyl)-6,7-dihydropyrrolo[3,4-f]isoindole-1,3(2H,5H)-dione] the DC50 was > 100 nM. Work on `O=C1CCC(N2C(=O)c3cc4c(cc3C2=O)CN(C2CCN(C(=O)[C@H]3C[C@@H](Oc5ccc([C@@H]6c7ccc(O)cc7CC[C@@H]6c6ccccc6)cc5)C3)CC2)C4)C(=O)N1` (mixture of isomers) [E 490, 2-(2,6-dioxopiperidin-3-yl)-6-(1-((1SR,3SR)-3-(4-((1R,2S)-6-hydroxy-2-phenyl-1,2,3,4-tetrahydronaphthalen-1-yl)phenoxy)cyclobutane-1-carbonyl)piperidin-4-yl)-6,7-dihydropyrrolo[3,4-f]isoindole-1,3(2H,5H)-dione] yielded a DC50 of 10 to 100 nM.
